Assays:
ROCK1 = molecular target: T1, ROCK1 (Homo sapiens, UniProt Q13464); assay: ROCK1 kinase assay (Reaction Biology Hot Spot kinase assay); assay type: biochemical; conditions: purified kinase, 33P-ATP (10 μM), P81 filter-binding method
T1 construct: purchased Reaction Biology
Experimental: (§1) ROCK2 and ROCK] kinase assays
(§2) ROCK2 and ROCK1 enzyme potencies were determined by Reaction Biology (www.reactionbiology.com) using their Hot Spot kinase Assay. The base reaction buffer for the assay was 20 mM Hepes (pH 7.5), 10 mM MgCl2, 1 mM EGTA, 0.01% Brij35, 0.02 mg/mL BSA, 0.1 mM Na3VO4, and 2 mM DTT with a 1% DMSO concentration. Required cofactors were added individually to each kinase reaction. The substrate was freshly prepared in the reaction buffer described above, and then cofactors were delivered. The purified kinase was added to the substrate solution and then gently mixed. Compounds were added from 100% DMSO into the kinase reaction mixture by Acoustic technology (Echo550; nanoliter range) and then incubated for 20 min at room temperature. ^33P-ATP (10 μM) was delivered to initiate the reaction, and then the mixture was incubated again for two hours at room temperature. […] Nat. Biotechnol. 2011 Oct. 30; 29(11):1039-45. doi: 10.1038/nbt.2017.
(§3) The compounds were categorized based on IC50 value as “+”, “++”, “+++”, and “++++”. The category “+” refers to compounds with ROCK IC50 value of >10 μM. The category “++” refers to compounds with a ROCK IC50 value of 10 to 3 μM. The category “+++” refers to compounds with ROCK IC50 value of 3 to 0.3 μM. The category “++++” refers to compounds with a ROCK IC50 value of <0.3 μM. “ND” refers to “not determined.” The compound of an “Example Number” is the final product of an Example entitled the Example Number.

ROCK2 = molecular target: T2, ROCK2 (Homo sapiens, UniProt O75116); assay: ROCK2 kinase assay (Reaction Biology Hot Spot kinase assay); assay type: biochemical; conditions: purified kinase, 33P-ATP (10 μM), P81 filter-binding method
T2 construct: purchased Reaction Biology
Experimental: as §1, §2, §3

T1 sequence (Q13464 whole entry): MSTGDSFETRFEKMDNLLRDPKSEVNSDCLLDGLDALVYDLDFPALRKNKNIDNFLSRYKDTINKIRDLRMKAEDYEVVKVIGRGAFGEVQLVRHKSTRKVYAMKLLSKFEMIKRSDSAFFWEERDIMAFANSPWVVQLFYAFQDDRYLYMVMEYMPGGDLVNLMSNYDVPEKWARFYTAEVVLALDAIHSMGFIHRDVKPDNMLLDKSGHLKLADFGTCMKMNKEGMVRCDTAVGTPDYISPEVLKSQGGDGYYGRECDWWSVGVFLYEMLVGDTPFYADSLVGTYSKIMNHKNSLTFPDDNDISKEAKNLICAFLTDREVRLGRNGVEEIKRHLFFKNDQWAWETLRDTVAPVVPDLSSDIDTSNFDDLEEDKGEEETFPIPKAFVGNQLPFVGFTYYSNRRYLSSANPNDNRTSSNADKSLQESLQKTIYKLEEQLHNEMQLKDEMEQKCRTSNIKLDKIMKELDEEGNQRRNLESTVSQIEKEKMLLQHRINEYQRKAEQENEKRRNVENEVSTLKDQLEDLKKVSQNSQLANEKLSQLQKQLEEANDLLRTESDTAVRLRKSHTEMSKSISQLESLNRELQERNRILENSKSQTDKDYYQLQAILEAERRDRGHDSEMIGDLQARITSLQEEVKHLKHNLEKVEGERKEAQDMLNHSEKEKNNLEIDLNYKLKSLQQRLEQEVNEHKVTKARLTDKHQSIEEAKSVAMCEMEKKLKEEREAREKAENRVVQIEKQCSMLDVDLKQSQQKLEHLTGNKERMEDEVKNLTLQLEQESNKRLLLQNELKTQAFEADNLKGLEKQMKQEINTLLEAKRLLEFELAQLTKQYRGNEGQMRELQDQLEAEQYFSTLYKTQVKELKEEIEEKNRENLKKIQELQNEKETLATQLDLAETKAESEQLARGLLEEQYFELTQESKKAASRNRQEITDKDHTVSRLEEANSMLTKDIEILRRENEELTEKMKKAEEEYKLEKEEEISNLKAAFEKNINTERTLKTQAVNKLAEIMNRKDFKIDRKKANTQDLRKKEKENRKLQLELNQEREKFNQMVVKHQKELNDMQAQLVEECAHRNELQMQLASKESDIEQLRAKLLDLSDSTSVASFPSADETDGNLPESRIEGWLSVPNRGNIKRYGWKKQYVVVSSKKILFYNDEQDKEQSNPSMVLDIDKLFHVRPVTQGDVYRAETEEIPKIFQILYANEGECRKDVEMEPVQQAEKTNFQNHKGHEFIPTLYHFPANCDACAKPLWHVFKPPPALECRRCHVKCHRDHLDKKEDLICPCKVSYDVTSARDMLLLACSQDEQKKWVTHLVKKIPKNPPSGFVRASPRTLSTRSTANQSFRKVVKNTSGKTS
T2 sequence (O75116 whole entry): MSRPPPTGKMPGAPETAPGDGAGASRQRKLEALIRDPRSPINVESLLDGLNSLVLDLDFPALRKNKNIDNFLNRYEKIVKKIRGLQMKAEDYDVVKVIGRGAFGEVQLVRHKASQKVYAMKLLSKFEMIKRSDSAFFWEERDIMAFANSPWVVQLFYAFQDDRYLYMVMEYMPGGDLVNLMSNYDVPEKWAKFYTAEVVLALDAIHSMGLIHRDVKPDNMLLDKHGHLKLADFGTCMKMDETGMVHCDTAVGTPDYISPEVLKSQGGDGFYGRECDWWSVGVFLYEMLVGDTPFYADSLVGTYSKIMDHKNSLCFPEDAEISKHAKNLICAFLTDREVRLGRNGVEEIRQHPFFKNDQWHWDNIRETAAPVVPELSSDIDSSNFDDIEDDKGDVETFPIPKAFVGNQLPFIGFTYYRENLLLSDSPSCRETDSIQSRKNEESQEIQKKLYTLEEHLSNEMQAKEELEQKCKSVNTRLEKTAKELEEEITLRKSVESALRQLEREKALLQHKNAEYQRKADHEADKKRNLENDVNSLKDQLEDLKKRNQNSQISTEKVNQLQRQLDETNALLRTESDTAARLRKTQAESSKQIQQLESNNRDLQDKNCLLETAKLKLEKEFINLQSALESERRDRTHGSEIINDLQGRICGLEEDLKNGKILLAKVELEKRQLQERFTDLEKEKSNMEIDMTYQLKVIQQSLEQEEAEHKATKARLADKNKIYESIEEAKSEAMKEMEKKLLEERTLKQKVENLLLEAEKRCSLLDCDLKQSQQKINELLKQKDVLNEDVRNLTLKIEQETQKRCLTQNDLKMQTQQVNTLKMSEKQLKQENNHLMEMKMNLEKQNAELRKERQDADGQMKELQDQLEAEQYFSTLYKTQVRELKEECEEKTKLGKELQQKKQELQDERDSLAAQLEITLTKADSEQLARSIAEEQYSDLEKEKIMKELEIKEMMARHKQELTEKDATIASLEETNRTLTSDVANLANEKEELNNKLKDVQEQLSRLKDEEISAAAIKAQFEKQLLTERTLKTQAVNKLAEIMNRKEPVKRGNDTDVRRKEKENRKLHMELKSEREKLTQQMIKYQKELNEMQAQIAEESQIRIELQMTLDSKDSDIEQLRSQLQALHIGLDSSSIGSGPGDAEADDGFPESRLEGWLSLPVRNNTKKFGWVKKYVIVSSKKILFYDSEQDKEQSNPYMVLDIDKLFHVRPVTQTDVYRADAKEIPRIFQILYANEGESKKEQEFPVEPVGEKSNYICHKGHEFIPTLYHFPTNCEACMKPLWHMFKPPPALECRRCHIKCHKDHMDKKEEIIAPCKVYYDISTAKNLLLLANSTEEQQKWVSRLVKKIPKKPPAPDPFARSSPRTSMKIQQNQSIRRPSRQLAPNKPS

SMILES | IC50 (ROCK1) [nM] | IC50 (ROCK2) [nM]
COc1cc(-n2ccc(Nc3ccc4[nH]ncc4c3Cl)n2)ccc1OCC(=O)NC(C)C [Example 12] | 300 to 3000 | < 300
COc1cc(-n2cc(C)c(Nc3ccc4[nH]ncc4c3Cl)n2)ccc1OCC(=O)NC(C)C [Example 13] | 300 to 3000 | < 300
COc1cc(-n2nc(Nc3ccc4[nH]ncc4c3Cl)cc2C)ccc1OCC(=O)NC(C)C [Example 14] | > 10000 | 300 to 3000
CC(C)NC(=O)COc1ccc(-n2nc(Nc3ccc4[nH]ncc4c3)c3ccccc32)cc1 [Example 16] | > 10000 | 300 to 3000
COc1cc(-n2nc(Nc3ccc4[nH]ncc4c3Cl)c3ccccc32)ccc1OCC(=O)NC(C)C [Example 18] | 3000 to 10000 | 300 to 3000
COc1nc(-n2nc(Nc3ccc4[nH]ncc4c3Cl)c3ccccc32)ccc1OCC(=O)NC(C)C [Example 19] | < 300 | < 300
Cn1cc(C(=O)Nc2cccc(-n3nc(Nc4ccc5[nH]ncc5c4Cl)c4ccccc43)c2)cn1 [Example 31] | 300 to 3000 | < 300
O=C(Nc1cccc(-n2nc(Nc3ccc4[nH]ncc4c3Cl)c3ccccc32)c1)c1cccnc1 [Example 32] | > 10000 | < 300
Cn1cc(C(=O)Nc2cccc(-n3nc(Nc4ccc5[nH]ncc5c4Cl)c4ccccc43)n2)cn1 [Example 46] | < 300 | < 300
Cn1cc(C(=O)Nc2ccnc(-n3nc(Nc4ccc5[nH]ncc5c4Cl)c4ccccc43)c2)cn1 [Example 47] | > 10000 | > 10000
Cc1coc(-c2cc(-c3nnc(Nc4ccc5[nH]ncc5c4Cl)o3)ccn2)n1 [Example 48, N-(4-chloro-1H-indazol-5-yl)-5-(2-(4-methyloxazol-2-yl)pyridin-4-yl)-1,3,4-oxadiazol-2-amine] | < 300 | < 300
Clc1c(Nc2nnc(-c3ccnc(-c4ncco4)c3)o2)ccc2[nH]ncc12 [Example 49] | < 300 | < 300
Clc1c(Nc2nnc(-c3cccc(-c4ncco4)c3)o2)ccc2[nH]ncc12 [Example 50, N-(4-chloro-1H-indazol-5-yl)-5-(3-(oxazol-2-yl)phenyl)-1,3,4-oxadiazol-2-amine] | < 300 | < 300
Cn1cc(-c2nnc(Nc3ccc4[nH]ncc4c3Cl)o2)cc(NC(=O)c2ccccc2F)c1=O [Example 52, N-(5-(5-((4-chloro-1H-indazol-5-yl)amino)-1,3,4-oxadiazol-2-yl)-1-methyl-2-oxo-1,2-dihydropyridin-3-yl)-2-fluorobenzamide] | < 300 | < 300
Cn1cc(C(=O)Nc2cc(-n3nc(Nc4ccc5[nH]ncc5c4Cl)c4ccccc43)ccn2)cn1 [Example 53, N-(4-(3-((4-chloro-1H-indazol-5-yl)amino)-1H-indazol-1-yl)pyridin-2-yl)-1-methyl-1H-pyrazole-4-carboxamide] | 3000 to 10000 | < 300
Cn1cc(C(=O)Nc2cncc(-n3nc(Nc4ccc5[nH]ncc5c4Cl)c4ccccc43)c2)cn1 [Example 54, N-(5-(3-((4-chloro-1H-indazol-5-yl)amino)-1H-indazol-1-yl)pyridin-3-yl)-1-methyl-1H-pyrazole-4-carboxamide] | > 10000 | > 10000
Cn1cc(C(=O)Nc2cccc(-n3nc(Nc4ccc5[nH]ncc5c4Cl)c4ncccc43)c2)cn1 [Example 56, N-(3-(3-((4-chloro-1H-indazol-5-yl)amino)-1H-pyrazolo[4,3-b]pyridin-1-yl)phenyl)-1-methyl-1H-pyrazole-4-carboxamide] | 300 to 3000 | < 300
Cn1cc(C(=O)Nc2cc(-n3nc(Nc4ccc5[nH]ncc5c4Cl)c4ccccc43)ccc2F)cn1 [Example 57, N-(5-(3-((4-chloro-1H-indazol-5-yl)amino)-1H-indazol-1-yl)-2-fluorophenyl)-1-methyl-1H-pyrazole-4-carboxamide] | < 300 | < 300
Cn1cc(C(=O)Nc2cccc(-n3nc(Nc4ccc5[nH]ncc5c4Cl)c4cnccc43)c2)cn1 [Example 58] | < 300 | < 300

Next, values leading:

IC50 (ROCK1) [nM] | IC50 (ROCK2) [nM] | SMILES
3000 to 10000 | 300 to 3000 | Cn1cc(C(=O)Nc2cccc(-n3ccc(Nc4ccc5[nH]ncc5c4)n3)c2)cn1 [Example 1, N-(3-(3-((1H-indazol-5-yl)amino)-1H-pyrazol-1-yl)phenyl)-1-methyl-1H-pyrazole-4-carboxamide]
< 300 | < 300 | Cc1cn(-c2cccc(NC(=O)c3cnn(C)c3)c2)nc1Nc1ccc2[nH]ncc2c1 [Example 3, N-(3-(3-((1H-indazol-5-yl)amino)-4-methyl-1H-pyrazol-1-yl)phenyl)-1-methyl-1H-pyrazole-4-carboxamide]
< 300 | < 300 | Cc1cn(-c2cccc(NC(=O)c3cccnc3)c2)nc1Nc1ccc2[nH]ncc2c1 [Example 4, N-(3-(3-((1H-indazol-5-yl)amino)-4-methyl-1H-pyrazol-1-yl)phenyl)nicotinamide]
300 to 3000 | < 300 | Cc1cc(Nc2ccc3[nH]ncc3c2)nn1-c1cccc(NC(=O)c2c[nH]cn2)c1 [Example 5, N-(3-(3-((1H-indazol-5-yl)amino)-5-methyl-1H-pyrazol-1-yl)phenyl)-1H-imidazole-4-carboxamide]
300 to 3000 | 300 to 3000 | O=C(Nc1cccc(-n2ccc(Nc3ccc4[nH]ncc4c3)n2)c1)c1cccnc1 [Example 6]
300 to 3000 | < 300 | Cc1cc(Nc2ccc3[nH]ncc3c2)nn1-c1cccc(NC(=O)c2cccnc2)c1 [Example 9]
> 10000 | 300 to 3000 | COc1cc(-n2ccc(Nc3ccc4[nH]ncc4c3)n2)ccc1OCC(=O)NC(C)C [Example 11]
300 to 3000 | < 300 | COc1cc(-n2nc(Nc3ccc4[nH]ncc4c3)c3ccccc32)ccc1OCC(=O)NC(C)C [Example 17]
3000 to 10000 | 300 to 3000 | Cn1cc(C(=O)Nc2cccc(-n3nc(Nc4ccc5[nH]ncc5c4)c4ccccc43)c2)cn1 [Example 21]
3000 to 10000 | 300 to 3000 | O=C(Nc1cccc(-n2nc(Nc3ccc4[nH]ncc4c3)c3ccccc32)c1)c1c[nH]cn1 [Example 22]
300 to 3000 | 300 to 3000 | COc1ncc(C(=O)Nc2cccc(-n3nc(Nc4ccc5[nH]ncc5c4)c4ccccc43)c2)cn1 [Example 25]
3000 to 10000 | 300 to 3000 | O=C(Cc1ccccn1)Nc1cccc(-n2nc(Nc3ccc4[nH]ncc4c3)c3ccccc32)c1 [Example 26]
3000 to 10000 | 300 to 3000 | O=C(Cc1ncc[nH]1)Nc1cccc(-n2nc(Nc3ccc4[nH]ncc4c3)c3ccccc32)c1 [Example 27]
< 300 | < 300 | Cn1cc(C(=O)Nc2cccc(-c3cc(Nc4ccc5[nH]ncc5c4)no3)c2)cn1 [Example 33]
< 300 | < 300 | O=C(Nc1cccc(-c2cc(Nc3ccc4[nH]ncc4c3)no2)c1)c1c[nH]cn1 [Example 34, N-(3-(3-((1H-indazol-5-yl)amino)isoxazol-5-yl)phenyl)-1H-imidazole-4-carboxamide]
300 to 3000 | < 300 | O=C(Nc1cccc(-c2cc(Nc3ccc4[nH]ncc4c3)no2)c1)c1cccnc1 [Example 35]
< 300 | < 300 | Cn1cc(C(=O)Nc2cccc(-c3nnc(Nc4ccc5[nH]ncc5c4)o3)c2)cn1 [Example 36]
> 10000 | > 10000 | O=C(Nc1cccc(-c2nnc(Nc3ccc4[nH]ncc4c3)o2)c1)c1cn[nH]c1 [Example 37]
< 300 | < 300 | O=C(Nc1cccc(-c2nnc(Nc3ccc4[nH]ncc4c3)o2)c1)c1cccnc1 [Example 38]
< 300 | < 300 | Cn1cc(C(=O)Nc2cccc(-c3nc(Nc4ccc5[nH]ncc5c4)no3)c2)cn1 [Example 39]
< 300 | < 300 | O=C(Nc1cccc(-c2nc(Nc3ccc4[nH]ncc4c3)no2)c1)c1cn[nH]c1 [Example 40]
300 to 3000 | < 300 | O=C(Nc1cccc(-c2nc(Nc3ccc4[nH]ncc4c3)no2)c1)c1cccnc1 [Example 41]
< 300 | < 300 | Cn1cc(C(=O)Nc2cccc(-c3noc(Nc4ccc5[nH]ncc5c4)n3)c2)cn1 [Example 42]
< 300 | < 300 | O=C(Nc1cccc(-c2noc(Nc3ccc4[nH]ncc4c3)n2)c1)c1cccnc1 [Example 44]
< 300 | < 300 | Cn1cc(C(=O)Nc2cccc(-n3nc(Nc4ccc5[nH]ncc5c4)c4ccccc43)n2)cn1 [Example 45, N-(6-(3-((1H-indazol-5-yl)amino)-1H-indazol-1-yl)pyridin-2-yl)-1-methyl-1H-pyrazole-4-carboxamide]
< 300 | < 300 | Cn1cc(C(=O)Nc2cccc(-c3nnc(Nc4ccc5[nH]ncc5c4Cl)o3)c2)cn1 [Example 55, N-(3-(5-((4-chloro-1H-indazol-5-yl)amino)-1,3,4-oxadiazol-2-yl)phenyl)-1-methyl-1H-pyrazole-4-carboxamide]
